Earlier results, collected in patent US20030092754A1, “External preparation for skin diseases containing nitroimidazole” (priority 1999, published 2003).

Legend:
anti-TBA antibody titer = conditions: rabbits, intraperitoneal administration
granuloma formation = conditions: mice, oral administration
[1] = system: swelling of the ears induced by dinitrofluorobenzene; conditions: sensitized mice, intraperitoneal administration
delayed immune reaction = conditions: intraperitoneal administration

Cc1ncc([N+](=O)[O-])n1CCO [metronidazole, 2-(2-methyl-5-nitroimidazol-1-yl)ethanol]
increases in anti-TBA antibody titer to TBA vaccine (anti-TBA antibody titer): significantly inhibits
antimicrobial activity against Entamoeba histolytica (Entamoeba histolytica): strong antimicrobial activity
formation of granuloma by eggs of Schistosoma mansoni (granuloma formation): inhibited
swelling of the ears induced by dinitrofluorobenzene [1]: inhibit swelling of the ears
action on leukocyte migration (leukocyte migration): inhibitory action on leukocyte migration
delayed immune reaction to intravenous injection of ovine erythrocytes (delayed immune reaction): inhibits a delayed immune reaction
anti-Trichomonas activity (Trichomonas): potent anti-Trichomonas activity

CCS(=O)(=O)CCn1c([N+](=O)[O-])cnc1C [tinidazole, 1-(2-ethylsulfonylethyl)-2-methyl-5-nitroimidazole]
action on leukocyte migration (leukocyte migration): clearly exhibits inhibitory action of leukocyte migration
delayed immune reaction to intravenous injection of ovine erythrocytes (delayed immune reaction): tends to inhibit delayed immune reaction
anti-Trichomonas activity (Trichomonas): primarily has anti-Trichomonas activity
